Results reported in US6984500B2, “Method for detecting microorganisms and detection kit” (priority 2001, dated 2006).
Values after ≈ are worked out from the molar mass of the structure shown.

What was measured:
[1] = test system: A. fumigatus ATCC 26430; experiment: NCCLS M-38P turbidity method (0.2 mL micro broth dilution) antifungal susceptibility test; assay type: cell-based; settings: Aspergillus fumigatus, ATCC26430, repeated tests, determination time 46 to 50 hours
Procedure: (§1) Aspergillus Fumigatus ATCC26430 was used.
A comparative example was carried out according to NCCLS M-38P (0.2 mL culture system micro broth dilution method).

[2] = test system: A. fumigatus ATCC 26430; experiment: Colorimetric microplate drug susceptibility test (WST-8 coloring reagent, sucrose YN broth, NaOH sensitizing solution); assay type: cell-based, Aspergillus Fumigatus; settings: for Drug concentration at or above which almost no color was exhibited visually: visual reading
Procedure: as §1
The drug solutions so prepared were pipetted into a plate at 0.02 mL/well and dried to a solid under reduced pressure for 24 hours. A coloring reagent (containing 0.7 mmol/L WST-8, 0.0035 mmol/L 1-methoxy PMS, 0.5 mmol/L potassium ferricyanide, and 0.5 mmol/L of potassium ferrocyanide) was pipetted into each of the wells at 0.02 mL/well and they were again dried to a solid under reduced pressure for 24 hours.
6.7 g of YN Base (manufactured by Difco) and 20 g of sucrose were dissolved in about 900 mL of purified water, and the pH was adjusted to 7.0 with a 1N aqueous solution of sodium hydroxide. The solution was made up to 1000 mL with purified water and then filter sterilized using a 0.2 μm filter.
A tester strain was cultured using Sabouraud Dextrose Agar (manufactured by OXOID) at 35° C. for 7 days. 2 mL of sterile physiological saline containing 0.1% Tween 80 was added dropwise onto the culture medium so as to float spores. The above-mentioned physiological saline that had been added dropwise onto the culture medium was recovered and allowed to stand for 3 to 5 minutes, and after removing the precipitate it was mixed using a Vortex mixer to give a spore suspension. Dilution was carried out so that the absorbance at 530 nm was 0.09 to 0.11. 0.1 mL of the spore suspension so prepared was taken using a micro pipette, added to 20 mL of sucrose YN broth, and stirred using a Vortex mixer to give an inoculum. 0.2 mL of the inoculum was pipetted into each of the wells of the microplate for the test described in B, the plate was covered, and culturing was carried out at 35° C.±1° C. for 24 hours. As a blank, sucrose YN broth was added instead of the inoculum.
After 24 hours 0.02 mL of a 1.5 mol/L aqueous solution of sodium hydroxide was added to each well, and 5 minutes after the addition the absorbance at 630 nm was measured.
2. For ITCZ, the 80% inhibitory concentration (IC80) was determined.

[3] = test system: A. fumigatus ATCC 26430; settings: reference values of NCCLS M38-P; cited from earlier work

SMILES	MIC [1]	Drug concentration at or below which absorbance at 630 nm increased (FIG. 2) ([2]; 24 hours culture, absorbance at 630 nm)	Drug concentration at or above which almost no color was exhibited visually ([2]; 24 hours culture)	MIC ([2]; Aspergillus fumigatus, ATCC26430, 24 h)	Allowable range (MIC reference values described in NCCLS M38-P) [3]
CCC(C)n1ncn(-c2ccc(N3CCN(c4ccc(OCC5COC(Cn6cncn6)(c6ccc(Cl)cc6Cl)O5)cc4)CC3)cc2)c1=O (stereo not drawn) [ITCZ, Itraconazole]	0.12 to 0.25 µg/mL (≈ 0.17 to 0.354 µM)	≤ 0.06 µg/mL	≥ 0.12 µg/mL	0.12 to 0.25 µg/mL	–
C[C@@H]1[C@H](O)[C@@H](C)/C=C/C=C/C=C/C=C/C=C/C=C/C=C/[C@H](O[C@@H]2O[C@H](C)[C@@H](O)[C@H](N)[C@@H]2O)C[C@@H]2O[C@](O)(C[C@@H](O)C[C@@H](O)[C@H](O)CC[C@@H](O)C[C@@H](O)CC(=O)O[C@H]1C)C[C@H](O)[C@H]2C(=O)O [AMPH, Amphotericin B]	–	–	≥ 0.5 µg/mL	–	0.5 to 2.0 µg/mL
